{"source": "patent EP2846814B1", "about": "“COMPOSITION FOR THE PREVENTION AND TREATMENT OF VIRAL INFECTIONS CAUSED BY RETROVIRUSES” (Pandalis, Georgios, priority 2012, dated 2013)", "test_system": "HIV-1 Lai (subtype B, X4)", "test": "In vitro testing of antiviral activity in the HeLa-P4 assay (β-Galactosidase reporter, luminescence)", "format": "cell-based", "protocol": "• Viruses: HIV-1 Lai (subtype B, X4); titer: 8 x 10^4/ml; 20 µl/batch • Cells: HeLa-P4; 2.5 x 10^4/batch\nHeLa-P4 cells (from NIH AIDS Research and Reference Program) are a cell line, which was transfected with genes for the human CD4- and […] receptor and which are therefore infectable with HIV-1 (the CXCR4-receptor is expressed on the cells). For quantification of the HIV infection, the cells carry a reporter gene, i.e. β-Galactosidase gen, which is under control of the HIV-1 promoter. After infection, the Tat-protein of HIV-1 transactivates the reporter gene and the degree of infection can be quantified by measurement of the enzyme activity in the lysate of the cells. An inhibition of HIV-1 infection results in a reduction of the β-Galactosidase activity with respect to the infection with viruses without substance addition. The background is defined by measuring the enzyme activity in cells, to which no virus was added. Since in principle a lower infection may also be based on toxic effects of the substances to the cells, in addition to said assay a cytotoxicity assay is also carried out.\nThe test substances are prepared by adding 1 mg of each extract/concentrate in an Eppendorf vial and dissolving the sample in 1 ml of RPMI medium. The solution is filtered under sterile conditions and placed in a new Eppendorf vial. As a positive control, the T20-peptide (a known HIV-1 entry inhibitor; Enfuvirtide) is used. Dilution series of the test compounds alone, combinations thereof as well as of T20 in cell culture medium were prepared, wherein the samples have concentrations of 5, 10, 25, and 50 µg/ml for Marrubium vulgare, Cistus incanus and Ribes nigrum and combinations of extracts of Marrubium vulgare and Cistus incanus, and Marrubium vulgare and Ribes nigrum. For Marrubium vulgare, Borago officinalis and combinations of extracts of Marrubium vulgare and Borago officinalis concentrations of 5 and 50 µg/ml were tested. The given concentrations in the combinations relate to the concentration of each single extract, e.g. a concentration of 5 µg/ml means 5 µg/ml of Marrubium vulgare and 5 µg/ml of the extract of the other plant (Cistus incanus, Ribes nigrum, Borago officinalis).\nThe positive control T20 is used in concentrations of 100 and 200 nM. Each of the substance concentrations was tested in triplicates.\nDay 1: Each of the substance dilutions of Marrubium vulgare (5, 10, 25, 50, […]), Ribes nigrum (5, 10, 25, and 50 µg/ml), Cistus incanus (5, 10, 25, and 50 µg/ml) and Borago officinalis (5 and 50 µg/m) is mixed with 20 µl of the HIV-1 Lai virus stock (titer 8x10^4/ml), vortexed, and pre-incubated at 37 °C for 30 minutes. The virus/substance mixture is added to 2.5 x 10^4 HeLa-P4 cells corresponding to an m.o.i. of 0.06, vortexed and incubated for 2 h at 37 °C. Afterwards the supernatant is removed, the cells are washed with medium and 100 µl of fresh medium is added. The cells are incubated for 2 days at 37 °C.\nAccordingly, each of the substance dilutions of combinations of Marrubium vulgare and Ribes nigrum (5, 10, 25, and 50 µg/ml), Marrubium vulgare and Cistus incanus (5, 10, 25, and 50 µg/ml) and Marrubium vulgare and Borago officinalis (5 and 50 µg/ml) is mixed with 20 µl of the HIV-1 Lai virus stock (titer 8x10^4/ml), vortexed, and pre-incubated at 37 °C for 30 minutes. The virus/substance mixture is added to 2.5 x 10^4 HeLa-P4 cells, vortexed and incubated for 2 h at 37 °C. Afterwards the supernatant is removed, the cells are washed with medium and 100 µl of fresh medium is added. The cells are incubated for 2 days at 37 °C.\nDay 3: The supernatant is removed, the cells are washed with 100 µl of medium and lysed in 50 µl of lysis buffer per each well (2.5 ml glycerol; 1.25 ml MES-Tris, 25 µl 1 M DTT, 250 µl Triton X100, H2O ad 25 ml) for 10 minutes on ice and removed at -80 °C. […]"}
{"substance": "Enfuvirtide [T20]", "values": [{"measurement": "LU (luminescence units) Average", "setting": "100 nM", "value": 16893, "unit": "LU"}, {"measurement": "LU (luminescence units) Trial 1", "setting": "100 nM", "value": 23855, "unit": "LU"}, {"measurement": "LU (luminescence units) Trial 2", "setting": "100 nM", "value": 13888, "unit": "LU"}, {"measurement": "LU (luminescence units) Trial 3", "setting": "100 nM", "value": 12937, "unit": "LU"}, {"measurement": "LU (luminescence units) Average", "setting": "200 nM", "value": 8802, "unit": "LU"}, {"measurement": "LU (luminescence units) Trial 1", "setting": "200 nM", "value": 9407, "unit": "LU"}, {"measurement": "LU (luminescence units) Trial 2", "setting": "200 nM", "value": 7531, "unit": "LU"}, {"measurement": "LU (luminescence units) Trial 3", "setting": "200 nM", "value": 9468, "unit": "LU"}]}
